Experimental data taken from ChEMBL document CHEMBL3734723, “Synthesis and anticancer activity of 6-heteroarylcoumarins” (2015).

Key:
Assay type in all cases: functional
[1] = Growth inhibition of human RPMI8226 cells incubated for 48 hrs by sulforhodamine B assay; conditions: RPMI-8226, 48 h
[2] = test system: EKVX; experiment: Growth inhibition of human EKVX cells incubated for 48 hrs by sulforhodamine B assay
[3] = Growth inhibition of human HOP62 cells incubated for 48 hrs by sulforhodamine B assay; conditions: HOP-62, 48 h
[4] = Growth inhibition of human HOP92 cells incubated for 48 hrs by sulforhodamine B assay; conditions: HOP-92, 48 h
[5] = Growth inhibition of human COLO205 cells incubated for 48 hrs by sulforhodamine B assay; conditions: COLO 205, 48 h
[6] = test system: KM12; experiment: Growth inhibition of human KM12 cells incubated for 48 hrs by sulforhodamine B assay; conditions: KM12, 48 h
[7] = Growth inhibition of human SF539 cells incubated for 48 hrs by sulforhodamine B assay; conditions: SF-539, 48 h
[8] = Growth inhibition of human SNB75 cells incubated for 48 hrs by sulforhodamine B assay; conditions: SNB-75, 48 h
[9] = Growth inhibition of human UACC257 cells incubated for 48 hrs by sulforhodamine B assay; conditions: UACC-257, 48 h
[10] = Growth inhibition of human OVCAR5 cells incubated for 48 hrs by sulforhodamine B assay; conditions: OVCAR-5, 48 h
[11] = Growth inhibition of human NCI-ADR-RES cells incubated for 48 hrs by sulforhodamine B assay
[12] = test system: A498; experiment: Growth inhibition of human A498 cells incubated for 48 hrs by sulforhodamine B assay; conditions: A498, 48 h
[13] = test system: SN12C; experiment: Growth inhibition of human SN12C cells incubated for 48 hrs by sulforhodamine B assay
[14] = Growth inhibition of human PC3 cells incubated for 48 hrs by sulforhodamine B assay; conditions: PC-3, 48 h
[15] = Growth inhibition of human DU145 cells incubated for 48 hrs by sulforhodamine B assay; conditions: DU-145, 48 h
[16] = test system: MDA-MB-231; experiment: Growth inhibition of human MDA-MB-231 cells incubated for 48 hrs by sulforhodamine B assay; conditions: MDA-MB-231, 48 h
[17] = Growth inhibition of human prostate cancer cells after 48 hrs by sulforhodamine B assay; conditions: Cancer cell lines
[18] = Cytotoxicity against human RPMI8226 cells assessed as cell growth at 10 uM incubated for 48 hrs by sulforhodamine B assay; conditions: RPMI-8226, 48 h, read-out: Activity
[19] = test system: SR; experiment: Cytotoxicity against human SR cells assessed as cell growth at 10 uM incubated for 48 hrs by sulforhodamine B assay; conditions: read-out: Activity
[20] = test system: MDA-MB-468; experiment: Cytotoxicity against human MDA-MB-468 cells assessed as cell growth at 10 uM incubated for 48 hrs by sulforhodamine B assay; conditions: MDA-MB-468, 48 h, read-out: Activity
[21] = Cytotoxicity against human MOLT4 cells assessed as cell growth at 10 uM incubated for 48 hrs by sulforhodamine B assay; conditions: MOLT-4, 48 h, read-out: Activity
[22] = Cytotoxicity against human HL-60(TB) cells assessed as cell growth at 10 uM incubated for 48 hrs by sulforhodamine B assay; conditions: HL-60, 48 h, read-out: Activity
[23] = test system: EKVX; experiment: Cytotoxicity against human EKVX cells assessed as cell growth at 10 uM incubated for 48 hrs by sulforhodamine B assay; conditions: read-out: Activity
[24] = Cytotoxicity against human HOP92 cells assessed as cell growth at 10 uM incubated for 48 hrs by sulforhodamine B assay; conditions: HOP-92, 48 h, read-out: Activity
[25] = Cytotoxicity against human HCT116 cells assessed as cell growth at 10 uM incubated for 48 hrs by sulforhodamine B assay; conditions: HCT-116, 48 h, read-out: Activity
[26] = Cytotoxicity against human HCT15 cells assessed as cell growth at 10 uM incubated for 48 hrs by sulforhodamine B assay; conditions: HCT-15, 48 h, read-out: Activity
[27] = test system: KM12; experiment: Cytotoxicity against human KM12 cells assessed as cell growth at 10 uM incubated for 48 hrs by sulforhodamine B assay; conditions: KM12, 48 h, read-out: Activity
[28] = test system: Malme-3M; experiment: Cytotoxicity against human MALME-3M cells assessed as cell growth at 10 uM incubated for 48 hrs by sulforhodamine B assay; conditions: read-out: Activity
[29] = test system: ACHN; experiment: Cytotoxicity against human ACHN cells assessed as cell growth at 10 uM incubated for 48 hrs by sulforhodamine B assay; conditions: read-out: Activity
[30] = test system: SN12C; experiment: Cytotoxicity against human SN12C cells assessed as cell growth at 10 uM incubated for 48 hrs by sulforhodamine B assay; conditions: read-out: Activity
[31] = Cytotoxicity against human RXF393 cells assessed as cell growth at 10 uM incubated for 48 hrs by sulforhodamine B assay; conditions: RXF 393, 48 h, read-out: Activity
[32] = Cytotoxicity against human DU145 cells assessed as cell growth at 10 uM incubated for 48 hrs by sulforhodamine B assay; conditions: DU-145, 48 h, read-out: Activity
[33] = test system: T47D; experiment: Cytotoxicity against human T47D cells assessed as cell growth at 10 uM incubated for 48 hrs by sulforhodamine B assay; conditions: read-out: Activity
[34] = Cytotoxicity against human TK10 cells assessed as cell growth at 10 uM incubated for 48 hrs by sulforhodamine B assay; conditions: TK-10, 48 h, read-out: Activity
[35] = read-out: LC50 (the source's name)

SMILES: Cc1cc(=O)oc2c(C)c(O)c(-c3ccnc(N)n3)cc12
- GI50 [1]: 55.1 µM
- TGI [1]: > 100 µM
- CC50 [1, 35]: > 100 µM
- GI50 [2]: 48.4 µM
- TGI [2]: > 100 µM
- CC50 [2, 35]: > 100 µM
- GI50 [3]: 10.9 µM
- TGI [3]: > 100 µM
- CC50 [3, 35]: > 100 µM
- GI50 [4]: 19.4 µM
- TGI [4]: 93.9 µM
- CC50 [4, 35]: > 100 µM
- GI50 [5]: 6.85 µM
- TGI [5]: > 100 µM
- CC50 [5, 35]: > 100 µM
- GI50 [6]: > 100 µM
- TGI [6]: > 100 µM
- CC50 [6, 35]: > 100 µM
- GI50 [7]: 8.33 µM
- TGI [7]: > 100 µM
- CC50 [7, 35]: > 100 µM
- GI50 [8]: 5.08 µM
- TGI [8]: 92.9 µM
- CC50 [8, 35]: > 100 µM
- GI50 [9]: > 100 µM
- TGI [9]: > 100 µM
- CC50 [9, 35]: > 100 µM
- GI50 [10]: > 100 µM
- TGI [10]: > 100 µM
- CC50 [10, 35]: > 100 µM
- GI50 [11]: 66.1 µM
- TGI [11]: > 100 µM
- CC50 [11, 35]: > 100 µM
- GI50 [12]: 1.44 µM
- TGI [12]: > 100 µM
- CC50 [12, 35]: > 100 µM
- GI50 [13]: 29.2 µM
- TGI [13]: > 100 µM
- CC50 [13, 35]: > 100 µM
- GI50 [14]: > 100 µM
- TGI [14]: > 100 µM
- CC50 [14, 35]: > 100 µM
- GI50 [15]: > 100 µM
- TGI [15]: > 100 µM
- CC50 [15, 35]: > 100 µM
- GI50 [16]: > 100 µM
- TGI [16]: > 100 µM
- CC50 [16, 35]: > 100 µM
- GI50 [17]: > 100 µM
- TGI [17]: > 100 µM
- CC50 [17, 35]: > 100 µM
- growth at 10 µM [18]: 30.5%
- growth at 10 µM [19]: 9.17%
- growth at 10 µM [20]: 40.4%
- growth at 10 µM [21]: -44.7%
- growth at 10 µM [22]: -0.65%
- growth at 10 µM [23]: 46.7%
- growth at 10 µM [24]: 47.4%
- growth at 10 µM [25]: 15.8%
- growth at 10 µM [26]: 50.4%
- growth at 10 µM [27]: 66.1%
- growth at 10 µM [28]: 66.9%
- growth at 10 µM [29]: 26.9%
- growth at 10 µM [30]: 50.8%
- growth at 10 µM [31]: 55.7%
- growth at 10 µM [32]: 66.6%
- growth at 10 µM [33]: 53.7%
- growth at 10 µM [34]: 61.9%
